The source made the active and inactive calls. The calls are words filed in the database; no cut-off is given here.
Key:
[1] = Oral bioavailability in rat at 10 mg/kg; type: ADME, organism-based; details: in vivo
[2] = Tmax in rat at 10 mg/kg, po; type: ADME, organism-based; details: in vivo
[3] = Cmax in rat at 10 mg/kg, po; type: ADME, organism-based; set-up: dose 10 mg/kg, route oral; details: in vivo
[4] = tested on: Rattus norvegicus; test: Reversal of complete freund's adjuvant-induced thermal hyperalgesia in Sprague-Dawley rat model assessed as increase in paw withdrawal latency time at 30 mg/kg, po pre-exposed to thermal stimuli followed by CFA injection and subsequent compound administration; type: functional, organism-based; details: TDE = time-dependent effect
[5] = tested on: Rattus norvegicus; test: Reversal of complete freund's adjuvant-induced thermal hyperalgesia in Sprague-Dawley rat model assessed as increase in paw withdrawal latency time at 1 to 30 mg/kg, po pre-exposed to thermal stimuli followed by CFA injection and subsequent compound administration relative to control; type: functional
[6] = tested on: Rattus norvegicus; test: Reversal of complete freund's adjuvant-induced thermal hyperalgesia in Sprague-Dawley rat model assessed as increase in paw withdrawal latency time at 1 to 30 mg/kg, po pre-exposed to thermal stimuli followed by CFA injection and subsequent compound administration measured after 30 to 180 mins; type: functional, organism-based
[7] = tested on: Rattus norvegicus; test: Reversal of complete freund's adjuvant-induced thermal hyperalgesia in po dosed Sprague-Dawley rat model assessed as increase in paw withdrawal latency time pre-exposed to thermal stimuli followed by CFA injection and subsequent compound administration; type: functional
[8] = tested on: Rattus norvegicus; test: Reversal of complete freund's adjuvant-induced thermal hyperalgesia in Sprague-Dawley rat model assessed as increase in paw withdrawal latency time at 1 to 30 mg/kg, po pre-exposed to thermal stimuli followed by CFA injection and subsequent compound administration; type: functional
[9] = Drug concentration in blood of Sprague-Dawley rat at 1 mg/kg, po; type: ADME, organism-based; details: in vivo, read-out: Ct
[10] = Drug concentration in blood of Sprague-Dawley rat at 3 mg/kg, po; type: ADME, organism-based; details: in vivo, read-out: Ct
[11] = Drug concentration in blood of Sprague-Dawley rat at 10 mg/kg, po; type: ADME, organism-based; details: in vivo, read-out: Ct
[12] = Drug concentration in blood of Sprague-Dawley rat at 30 mg/kg, po; type: ADME, organism-based; details: in vivo, read-out: Ct
[13] = Drug concentration in brain of Sprague-Dawley rat at 1 mg/kg, po; type: ADME, organism-based; details: in vivo, read-out: Ct
[14] = Drug concentration in brain of Sprague-Dawley rat at 3 mg/kg, po; type: ADME, organism-based; details: in vivo, read-out: Ct
[15] = Drug concentration in brain of Sprague-Dawley rat at 10 mg/kg, po; type: ADME, organism-based; details: in vivo, read-out: Ct
[16] = Drug concentration in brain of Sprague-Dawley rat at 30 mg/kg, po; type: ADME, organism-based; details: in vivo, read-out: Ct
[17] = tested on: Rattus norvegicus; test: Effect on 2-AG level in brain of Sprague-Dawley rat 1 mg/kg, po (reference value: 11.96 nmol/g); type: functional
[18] = tested on: Rattus norvegicus; test: Effect on 2-AG level in brain of Sprague-Dawley rat 3 mg/kg, po (reference value: 11.96 nmol/g); type: functional
[19] = tested on: Rattus norvegicus; test: Effect on 2-AG level in brain of Sprague-Dawley rat 10 mg/kg, po (reference value: 11.96 nmol/g); type: functional
[20] = tested on: Rattus norvegicus; test: Effect on 2-AG level in brain of Sprague-Dawley rat 30 mg/kg, po (reference value: 11.96 nmol/g); type: functional
[21] = molecular target: T1, Fatty-acid amide hydrolase 1 (Homo sapiens, UniProt O00519); test: Inhibition of FAAH (unknown origin)
T1 sequence (O00519 whole entry): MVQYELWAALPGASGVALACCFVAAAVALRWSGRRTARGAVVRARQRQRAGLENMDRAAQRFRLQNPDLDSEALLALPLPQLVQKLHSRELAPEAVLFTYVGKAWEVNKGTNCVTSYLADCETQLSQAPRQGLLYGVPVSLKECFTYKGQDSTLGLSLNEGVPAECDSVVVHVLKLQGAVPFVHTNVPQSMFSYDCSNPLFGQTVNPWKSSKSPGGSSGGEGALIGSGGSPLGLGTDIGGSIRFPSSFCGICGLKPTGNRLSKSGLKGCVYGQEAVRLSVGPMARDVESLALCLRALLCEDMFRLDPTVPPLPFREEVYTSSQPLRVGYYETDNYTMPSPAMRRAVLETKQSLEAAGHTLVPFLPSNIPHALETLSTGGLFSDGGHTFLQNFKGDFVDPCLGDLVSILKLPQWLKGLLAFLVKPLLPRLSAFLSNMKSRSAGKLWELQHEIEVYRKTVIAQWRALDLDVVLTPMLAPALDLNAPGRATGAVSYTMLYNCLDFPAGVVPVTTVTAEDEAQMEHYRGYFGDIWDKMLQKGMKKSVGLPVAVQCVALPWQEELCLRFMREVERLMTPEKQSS

[22] = molecular target: Cannabinoid receptor 1 (Homo sapiens, UniProt P21554); test: Binding affinity to CB1 receptor (unknown origin); type: ADME
[23] = molecular target: Cannabinoid receptor 2 (Homo sapiens, UniProt P34972); test: Binding affinity to CB2 receptor (unknown origin); type: ADME
[24] = molecular target: Tryptase (Homo sapiens) (UniProt Q9BZJ3+Q15661+Q9NRR2); test: Inhibition of tryptase (unknown origin) at 10 uM relative to control; type: protein assay
[25] = species: Homo sapiens; test: Inhibition of elastase (unknown origin) at 10 uM relative to control
[26] = molecular target: Plasminogen (Homo sapiens) (UniProt P00747); test: Inhibition of plasmin (unknown origin) at 10 uM relative to control
[27] = molecular target: Chymotrypsin (Homo sapiens) (UniProt Q99895+P17538+P40313+Q6GPI1); test: Inhibition of chymotrypsin (unknown origin) at 10 uM relative to control; type: protein assay
[28] = molecular target: Tissue-type plasminogen activator (Homo sapiens) (UniProt P00750); test: Inhibition of TPA (unknown origin) at 10 uM relative to control
Tissue-type plasminogen activator (Homo sapiens), sequence (P00750 36-562 limits assumed): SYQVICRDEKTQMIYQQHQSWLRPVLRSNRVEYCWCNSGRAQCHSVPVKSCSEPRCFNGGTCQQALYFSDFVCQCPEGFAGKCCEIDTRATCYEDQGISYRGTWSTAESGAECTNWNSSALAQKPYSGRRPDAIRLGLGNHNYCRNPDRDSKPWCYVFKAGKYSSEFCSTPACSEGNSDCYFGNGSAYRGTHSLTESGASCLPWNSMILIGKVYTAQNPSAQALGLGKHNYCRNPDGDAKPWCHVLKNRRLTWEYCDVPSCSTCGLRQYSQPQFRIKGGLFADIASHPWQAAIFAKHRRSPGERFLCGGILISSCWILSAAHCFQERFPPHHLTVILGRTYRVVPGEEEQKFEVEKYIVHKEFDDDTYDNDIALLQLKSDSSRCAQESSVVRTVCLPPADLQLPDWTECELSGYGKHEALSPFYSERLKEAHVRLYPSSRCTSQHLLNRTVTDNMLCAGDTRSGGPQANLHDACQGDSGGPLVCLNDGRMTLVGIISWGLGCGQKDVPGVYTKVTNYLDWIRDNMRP

Plasminogen (Homo sapiens), sequence (P00747 97-580 limits assumed): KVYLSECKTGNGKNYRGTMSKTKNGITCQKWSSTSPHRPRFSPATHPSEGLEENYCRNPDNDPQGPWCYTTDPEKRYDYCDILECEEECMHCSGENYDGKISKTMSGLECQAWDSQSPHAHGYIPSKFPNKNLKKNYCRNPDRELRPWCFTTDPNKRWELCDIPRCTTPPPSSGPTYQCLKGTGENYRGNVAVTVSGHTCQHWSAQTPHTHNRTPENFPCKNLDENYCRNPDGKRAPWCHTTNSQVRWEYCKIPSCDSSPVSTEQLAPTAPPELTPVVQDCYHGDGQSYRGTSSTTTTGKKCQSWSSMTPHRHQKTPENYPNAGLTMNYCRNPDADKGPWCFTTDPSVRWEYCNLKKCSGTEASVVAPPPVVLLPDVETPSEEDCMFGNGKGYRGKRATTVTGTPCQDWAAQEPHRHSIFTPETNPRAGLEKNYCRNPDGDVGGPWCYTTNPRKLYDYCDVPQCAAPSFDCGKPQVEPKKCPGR
Plasminogen (Homo sapiens), sequence (P00747 581-810 limits assumed): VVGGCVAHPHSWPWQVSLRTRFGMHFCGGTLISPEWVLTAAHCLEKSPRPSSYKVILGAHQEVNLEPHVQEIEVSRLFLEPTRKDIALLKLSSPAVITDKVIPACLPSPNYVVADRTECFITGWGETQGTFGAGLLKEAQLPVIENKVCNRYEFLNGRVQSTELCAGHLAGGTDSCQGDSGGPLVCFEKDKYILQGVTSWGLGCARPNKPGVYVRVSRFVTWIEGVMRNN
Cannabinoid receptor 1, sequence (P21554 whole entry): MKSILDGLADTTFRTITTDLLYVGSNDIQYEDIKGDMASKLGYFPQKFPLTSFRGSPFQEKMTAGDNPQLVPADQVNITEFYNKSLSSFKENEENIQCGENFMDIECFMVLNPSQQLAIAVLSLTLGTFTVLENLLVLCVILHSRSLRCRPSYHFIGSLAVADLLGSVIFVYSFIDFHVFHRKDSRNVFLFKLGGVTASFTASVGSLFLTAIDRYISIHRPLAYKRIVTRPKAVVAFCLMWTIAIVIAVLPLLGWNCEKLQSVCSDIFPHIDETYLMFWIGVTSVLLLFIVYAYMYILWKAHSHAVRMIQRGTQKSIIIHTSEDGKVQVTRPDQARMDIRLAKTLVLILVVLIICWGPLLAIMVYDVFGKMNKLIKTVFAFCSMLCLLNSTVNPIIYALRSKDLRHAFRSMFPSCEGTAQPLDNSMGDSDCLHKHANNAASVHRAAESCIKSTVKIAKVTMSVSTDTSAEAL
Cannabinoid receptor 2, sequence (P34972 whole entry): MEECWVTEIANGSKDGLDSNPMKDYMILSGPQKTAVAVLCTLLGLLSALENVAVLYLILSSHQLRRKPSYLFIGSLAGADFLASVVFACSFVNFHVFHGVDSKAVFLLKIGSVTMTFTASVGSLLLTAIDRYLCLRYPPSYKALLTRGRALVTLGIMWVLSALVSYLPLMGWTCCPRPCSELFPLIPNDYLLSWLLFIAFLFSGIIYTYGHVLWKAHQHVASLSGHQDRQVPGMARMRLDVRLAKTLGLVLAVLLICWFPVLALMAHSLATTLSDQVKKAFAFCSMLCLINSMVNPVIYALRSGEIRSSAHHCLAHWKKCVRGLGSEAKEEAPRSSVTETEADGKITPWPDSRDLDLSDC

**Q.** Which bioavailability [1] does the source give for O=C(c1ccc2c(ccn2-c2ccc(F)cc2)c1)N1CC(N2CCN(C(=O)c3nccs3)CC2)C1 here?
**A.** 45%

**Q.** And the Tmax [2]?
**A.** 1.75 h

**Q.** And the Cmax [3]?
**A.** 0.71 µg/mL

**Q.** And the Activity [4]?
**A.** Tde

**Q.** And the Activity [5]?
**A.** 100%

**Q.** What about the Activity [6] of the same compound?
**A.** Active

**Q.** What about the ED50 [7] of the same compound?
**A.** 3 mg/kg

**Q.** And the Time [8]?
**A.** 100 min

**Q.** What about the concentration [9] of the same compound?
**A.** 0.0249 µM

**Q.** And the concentration [10]?
**A.** 0.135 µM

**Q.** What about the concentration [11] of the same compound?
**A.** 0.519 µM

**Q.** What about the concentration [12] of the same compound?
**A.** 3.07 µM

**Q.** What about the concentration [13] of the same compound?
**A.** 0.142 µM

**Q.** And the concentration [14]?
**A.** 0.339 µM

**Q.** And the concentration [15]?
**A.** 0.668 µM

**Q.** What about the concentration [16] of the same compound?
**A.** 3.54 µM

**Q.** What about the Activity [17] of the same compound?
**A.** 19.28 nmol/g

**Q.** And the Activity [18]?
**A.** 33.01 nmol/g

**Q.** And the Activity [19]?
**A.** 46.43 nmol/g

**Q.** And the Activity [20]?
**A.** 108.4 nmol/g

**Q.** And the IC50 [21]?
**A.** 4 µM

**Q.** And the IC50 [22]?
**A.** > 10 µM

**Q.** What about the IC50 [23] of the same compound?
**A.** > 10 µM

**Q.** And the inhibition [24]?
**A.** 2%

**Q.** What about the inhibition [25] of the same compound?
**A.** 4%

**Q.** What about the inhibition [26] of the same compound?
**A.** 4%

**Q.** What about the inhibition [27] of the same compound?
**A.** -3%

**Q.** What about the inhibition [28] of the same compound?
**A.** 6%

Source: ChEMBL document CHEMBL4622904, “The discovery of azetidine-piperazine di-amides as potent, selective and reversible monoacylglycerol lipase (MAGL) inhibitors” (Bioorg Med Chem Lett, 2020)
